Assay results from US20080194638A1, “BIOAVAILABLE FORMULATIONS OF HETEROCYCLIC COMPOUNDS” (Forest Laboratories Holdings Limited, priority 2007, published 2008).
Where a name gives a salt, the structure may show the parent alone.

Test: Solubility of crystalline forms
Assay type: physicochemical
Text: wherein R^1-R^4, P, X, Y, m, n and Ar are as defined therein. One such compound is N-(3,5-dichloropyrid-4-yl)-4-difluoromethoxy-8-methanesulfonamido-dibenzo[b,d]furan-1-carboxamide, the International nonproprietary name for which is oglemilast. The pharmacology and safety profiles for oglemilast have been described in, for example, Eur. Respir. J. (2004) 24 (Suppl 48): Abst 1391. Both US 2005/0027129 and International Publication No. WO 2006/040652 disclose methods for preparing oglemilast and pharmaceutically acceptable salts thereof, such as the sodium salt (see, e.g., Examples 30 and 31 of US publication No. 2005/0027129) and generically disclose formulations of oglemilast and the corresponding sodium salt. In these formulations, the active ingredient is present substantially in a crystalline form. […] In an attempt to increase the bioavailability of formulations containing, e.g., oglemilast, salt forms of the active ingredient have typically been used.

Row | solubility | Compound
1 | approximately 0.2 μg/mL | CS(=O)(=O)Nc1ccc2oc3c(OC(F)F)ccc(C(=O)Nc4c(Cl)cncc4Cl)c3c2c1 [crystalline oglemilast, N-(3,5-dichloropyrid-4-yl)-4-difluoromethoxy-8-methanesulfonamido-dibenzo[b,d]furan-1-carboxamide]
2 | approximately 140 μg/mL | CS(=O)(=O)Nc1ccc2oc3c(OC(F)F)ccc(C(=O)Nc4c(Cl)cncc4Cl)c3c2c1 [crystalline sodium salt of oglemilast]
